These results are taken from patent publication US20230416238A1, “N-[(1,3-BENZOXAZOL-2-YL)-HETEROCYCLE]AMIDE DERIVATIVES FOR THE TREATMENT AND PROPHYLAXIS OF HEPATITIS B VIRUS INFECTION” (Hoffmann-La Roche Inc., priority 2020, published 2023).

Structures are written as SMILES.

Common to all, as to format: cell-based
The test system of one data set is HBsAg. Briefly: PHH HBV natural infection assay, HBsAg (alphalisa). The note with it: Hepatitis B virus, Hepatocyte, read-out: HBsAg IC50. In outline: (§1)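 Primary human hepatocytes infected with HBV at 200 GE/cell plus 4% PEG8000 for 24 h, then sandwich-cultured 72 h in medium with 1% DMSO. Compound applied twice at 72-h intervals; supernatant HBsAg and HBeAg quantified by AlphaLISA.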

Data set [1] can be described thus: Cytotoxicity in PHH natural infection assay (Cell Counting Kit-8). The note with it: HBV-infected primary human hepatocytes, CCK8. In short, it runs like this: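 HBV-infected primary human hepatocytes (200 GE/cell, 4% PEG8000, 24 h), then sandwich-cultured 72 h. Cells dosed at varying concentrations for two 72-hour cycles, with medium refreshed. Cytotoxicity read by CCK-8 at end of treatment.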

Another data set has as its system HBeAg. Nature of the data set: PHH HBV natural infection assay, HBeAg (alphalisa). Particulars: Hepatitis B virus, Hepatocyte, read-out: HBeAg IC50. In outline:
as §1

Broadly, the IC50 is the concentration that inhibits the measured activity by half. Broadly, the CC50 is the concentration giving 50% cytotoxicity. A higher CC50 goes with lower toxicity to the cells.

`O=C(NC1CCC2(CC1)CCN(c1nc3cc(Cl)ccc3o1)CC2)[C@@H]1CCS(=O)(=O)C1` [Example 91, (3S)—N-[3-(5-chloro-1,3-benzoxazol-2-yl)-3-azaspiro[5.5]undecan-9-yl]-1,1-dioxo-thiolane-3-carboxamide]: the IC50 with HBsAg is 1.12 µM; with HBeAg, 0.676 µM. Moreover, in data set [1], the half-maximal cytotoxic concentration (CC50) at 144 h is 89.2 µM.

Take `O=C(NC1CCC2(CC1)CCN(c1nc3cc(Cl)ccc3o1)CC2)[C@H]1CCS(=O)(=O)C1` [Example 92, (3R)—N-[3-(5-chloro-1,3-benzoxazol-2-yl)-3-azaspiro[5.5]undecan-9-yl]-1,1-dioxo-thiolane-3-carboxamide]: the IC50 in the data set on HBsAg is 0.857 µM; with HBeAg, 0.75 µM. In addition, the CC50 at 144 h in data set [1] is 83.9 µM.

Turning to `CC1(C(=O)NC2CCC3(CC2)CCN(c2nc4cc(Cl)ccc4o2)CC3)CCS(=O)(=O)C1` (stereo not drawn) [Example 93, N-[3-(5-chloro-1,3-benzoxazol-2-yl)-3-azaspiro[5.5]undecan-9-yl]-3-methyl-1,1-dioxo-thiolane-3-carboxamide], the IC50 was found to be 1.82 µM in the data set with HBsAg and 1.19 µM in the data set with HBeAg. For the same compound, the half-maximal cytotoxic concentration (CC50) at 144 h in data set [1] was over 100 µM.

`O=C(NC1CCC2(CC1)CCN(c1nc3ccc(Cl)cc3o1)CC2)C1CCS(=O)(=O)C1` (stereo not drawn) [Example 94, N-[3-(6-chloro-1,3-benzoxazol-2-yl)-3-azaspiro[5.5]undecan-9-yl]-1,1-dioxo-thiolane-3-carboxamide]: the IC50 in the data set with HBsAg is 1.73 µM; in the data set on HBeAg it was 1.4 µM. In data set [1], this compound returned a CC50 at 144 h of 90.6 µM.

In the case of `O=C(NC1CCC2(CC1)CCN(c1nc3cc(Cl)ccc3o1)CC2)C1CC2(C1)CS(=O)(=O)C2` [Example 95, N-[3-(5-chloro-1,3-benzoxazol-2-yl)-3-azaspiro[5.5]undecan-9-yl]-2,2-dioxo-2-λ^6-thiaspiro[3.3]heptane-6-carboxamide], the IC50 was 1.67 µM with HBsAg and 3.62 µM with HBeAg. Further, in data set [1], the CC50 at 144 h is over 100 µM.

Take `O=C(NC1CCC2(CC1)CCN(c1nc3cc(Cl)ccc3o1)CC2)C1CCS(=O)(=O)CC1` [Example 96, N-[3-(5-chloro-1,3-benzoxazol-2-yl)-3-azaspiro[5.5]undecan-9-yl]-1,1-dioxo-thiane-4-carboxamide]: the IC50 was found to be 0.957 µM with HBsAg and 0.727 µM in the data set with HBeAg. The same compound yielded a CC50 at 144 h in data set [1] of 93.6 µM.

As to `O=C(NC1CCC2(CC1)CCN(c1nc3ccc(Cl)cc3o1)CC2)C1CCS(=O)(=O)CC1` [Example 97, N-[3-(6-chloro-1,3-benzoxazol-2-yl)-3-azaspiro[5.5]undecan-9-yl]-1,1-dioxo-thiane-4-carboxamide], the IC50 was determined as 3.52 µM with HBsAg and 2.48 µM in the data set on HBeAg. In data set [1], this compound returned a cytotoxic concentration (CC50) at 144 h of over 100 µM.

On to `CC1(C(=O)NC2CCC3(CC2)CCN(c2nc4cc(Cl)ccc4o2)CC3)CC[S+]([O-])CC1` (stereo not drawn) [Example 98, N-[3-(5-chloro-1,3-benzoxazol-2-yl)-3-azaspiro[5.5]undecan-9-yl]-4-methyl-1-oxo-thiane-4-carboxamide], for which the values for the IC50 in the data set on HBsAg and in the data set on HBeAg were 4.23 µM and 2.23 µM, respectively. In data set [1], this compound came in with a CC50 at 144 h of over 100 µM.

Turning to `CC1(C(=O)NC2CCC3(CC2)CCN(c2nc4cc(Cl)ccc4o2)CC3)CCS(=O)(=O)CC1` [Example 99, N-[3-(5-chloro-1,3-benzoxazol-2-yl)-3-azaspiro[5.5]undecan-9-yl]-4-methyl-1,1-dioxo-thiane-4-carboxamide], the IC50 in the data set on HBsAg came out at 2.63 µM; with HBeAg, 2.02 µM. The compound further showed a CC50 at 144 h in data set [1] of 94.1 µM.

Consider `O=C(NC1CCC2(CC1)CCN(c1nc3cc(Cl)ccc3o1)CC2)C1CCCS(=O)(=O)C1` (stereo not drawn) [Example 100, N-[3-(5-chloro-1,3-benzoxazol-2-yl)-3-azaspiro[5.5]undecan-9-yl]-1,1-dioxo-thiane-3-carboxamide], for which the figures for the half-maximal inhibitory concentration (IC50) in the data set with HBsAg and with HBeAg were 2.44 µM and 1.72 µM, respectively. Further, the CC50 at 144 h in data set [1] is over 100 µM.

For `O=C(NC1CCC2(CC1)CCN(c1nc3cc(Cl)ccc3o1)CC2)C1CCC(F)(F)C1` (stereo not drawn) [Example 101, N-[3-(5-chloro-1,3-benzoxazol-2-yl)-3-azaspiro[5.5]undecan-9-yl]-3,3-difluoro-cyclopentanecarboxamide], the figures for the IC50 in the data set with HBsAg and in the data set on HBeAg were 4.16 µM and 4.29 µM, respectively. This compound also returned a CC50 at 144 h in data set [1] of over 100 µM.

Take `O=C(NC1CCC2(CC1)CCN(c1nc3cc(Cl)ccc3o1)CC2)C1CCC(F)(F)CC1` [Example 102, N-[3-(5-chloro-1,3-benzoxazol-2-yl)-3-azaspiro[5.5]undecan-9-yl]-4,4-difluoro-cyclohexanecarboxamide]: the half-inhibitory concentration (IC50) in the data set with HBsAg amounted to 3.6 µM; in the data set on HBeAg, 3.77 µM. The same compound gave a CC50 at 144 h in data set [1] of over 100 µM.

On to `CC[S+]([O-])c1ccc(C(=O)NC2CCC3(CC2)CCN(c2nc4cc(Cl)ccc4o2)CC3)o1` (stereo not drawn) [Example 103, N-[3-(5-chloro-1,3-benzoxazol-2-yl)-3-azaspiro[5.5]undecan-9-yl]-5-ethylsulfinyl-furan-2-carboxamide], for which the IC50 in the data set with HBsAg is 1.35 µM; with HBeAg, 1.85 µM. Besides, in data set [1], half-maximal cytotoxicity (CC50 at 144 h) was put at 72.7 µM.

As for `O=C(NC1CCC2(CC1)CCN(c1nc3cc(Cl)ccc3o1)CC2)c1ccc([S+]([O-])CC2CC2)o1` (stereo not drawn) [Example 104, N-[3-(5-chloro-1,3-benzoxazol-2-yl)-3-azaspiro[5.5]undecan-9-yl]-5-(cyclopropylmethylsulfinyl)furan-2-carboxamide], the IC50 amounted to 1.16 µM in the data set with HBsAg and 0.996 µM with HBeAg. Also, the half-maximal cytotoxic concentration (CC50) at 144 h in data set [1] is 94.8 µM.

Turning to `O=C(NC1CCC2(CC1)CCN(c1nc3cc(Cl)ccc3o1)CC2)c1ccnc(C(F)(F)F)c1` [Example 105, N-[3-(5-chloro-1,3-benzoxazol-2-yl)-3-azaspiro[5.5]undecan-9-yl]-2-(trifluoromethyl)pyridine-4-carboxamide], the IC50 was determined as 1.12 µM in the data set with HBsAg and 1.03 µM in the data set with HBeAg. This compound also came in with a CC50 at 144 h in data set [1] of 59 µM.

With `COc1cc(C(=O)NC2CCC3(CC2)CCN(c2nc4cc(Cl)ccc4o2)CC3)ccn1` [Example 106, N-[3-(5-chloro-1,3-benzoxazol-2-yl)-3-azaspiro[5.5]undecan-9-yl]-2-methoxy-pyridine-4-carboxamide], the IC50 in the data set on HBsAg was 0.59 µM; in the data set with HBeAg it was 0.48 µM. In data set [1], this compound displayed a CC50 at 144 h of over 100 µM.

With `Cc1cc(C(=O)NC2CCC3(CC2)CCN(c2nc4cc(Cl)ccc4o2)CC3)ccn1` [Example 107, N-[3-(5-chloro-1,3-benzoxazol-2-yl)-3-azaspiro[5.5]undecan-9-yl]-2-methyl-pyridine-4-carboxamide], the values for the IC50 with HBsAg and in the data set on HBeAg were 0.496 µM and 0.427 µM, respectively. In data set [1], this compound gave a CC50 at 144 h of over 100 µM.

With `NS(=O)(=O)c1ccc(C(=O)NC2CCC3(CC2)CCN(c2nc4cc(Cl)ccc4o2)CC3)o1` [Example 108, N-[3-(5-chloro-1,3-benzoxazol-2-yl)-3-azaspiro[5.5]undecan-9-yl]-5-sulfamoyl-furan-2-carboxamide], the 50% inhibitory concentration (IC50) in the data set on HBsAg is 6.69 µM; in the data set with HBeAg it was 4.18 µM. Moreover, the cytotoxic concentration (CC50) at 144 h in data set [1] is over 10 µM.

As for `CS(=N)(=O)c1ccc(C(=O)NC2CCC3(CC2)CCN(c2nc4cc(Cl)ccc4o2)CC3)o1` (stereo not drawn) [Example 109, N-[3-(5-chloro-1,3-benzoxazol-2-yl)-3-azaspiro[5.5]undecan-9-yl]-5-(methylsulfonimidoyl)furan-2-carboxamide], the IC50 worked out at 5.88 µM with HBsAg and 4.66 µM in the data set with HBeAg. Moreover, the CC50 at 144 h in data set [1] was over 100 µM.

Regarding `O=C(NC1CCC2(CC1)CCN(c1nc3ccccc3o1)CC2)c1ccnc(S(=O)(=O)C2CC2)c1` [Example 110, N-[3-(1,3-benzoxazol-2-yl)-3-azaspiro[5.5]undecan-9-yl]-2-cyclopropylsulfonyl-pyridine-4-carboxamide], the IC50 amounted to 5.84 µM with HBsAg and 5.58 µM in the data set with HBeAg. The CC50 at 144 h in data set [1] is over 10 µM.

With `O=C(NC1CCC2(CC1)CCN(c1nc3cc(Cl)ccc3o1)CC2)c1ccc(S(=O)(=O)NC(=O)C2CCC2)o1` [Example 111, N-[3-(5-chloro-1,3-benzoxazol-2-yl)-3-azaspiro[5.5]undecan-9-yl]-5-(cyclobutanecarbonylsulfamoyl)furan-2-carboxamide], the half-inhibitory concentration (IC50) with HBsAg stood at 5.45 µM; with HBeAg, 3.47 µM. This compound also displayed a CC50 at 144 h in data set [1] of 85.7 µM.

As for `CS(=O)(=O)Cc1ccc(C(=O)NC2CCC3(CC2)CCN(c2nc4cc(Cl)ccc4o2)CC3)o1` [Example 112, N-[3-(5-chloro-1,3-benzoxazol-2-yl)-3-azaspiro[5.5]undecan-9-yl]-5-(methylsulfonylmethyl)furan-2-carboxamide], the IC50 in the data set with HBsAg amounted to 3.68 µM; in the data set on HBeAg, 4.24 µM. The compound further had a CC50 at 144 h in data set [1] of over 10 µM.

For the compound `CS(=O)(=O)c1ccc(C(=O)NC2CCC3(CC2)CCN(c2nc4cc(Cl)ccc4o2)CC3)o1` [Example 113, N-[3-(5-chloro-1,3-benzoxazol-2-yl)-3-azaspiro[5.5]undecan-9-yl]-5-methylsulfonyl-furan-2-carboxamide], the IC50 was determined as 3.59 µM in the data set with HBsAg and 3.27 µM with HBeAg. In addition, in data set [1], the CC50 at 144 h is over 100 µM.

For `CCS(=N)(=O)c1ccc(C(=O)NC2CCC3(CC2)CCN(c2nc4cc(Cl)ccc4o2)CC3)o1` (stereo not drawn) [Example 114, N-[3-(5-chloro-1,3-benzoxazol-2-yl)-3-azaspiro[5.5]undecan-9-yl]-5-(ethylsulfonimidoyl)furan-2-carboxamide], the IC50 in the data set on HBsAg was 3.54 µM; in the data set on HBeAg, 3.1 µM. In data set [1], this compound gave a CC50 at 144 h of 93.3 µM.

`O=C(NC1CCC2(CC1)CCN(c1nc3cc(Cl)ccc3o1)CC2)c1ccc(C(F)(F)F)o1` [Example 115, N-[3-(5-chloro-1,3-benzoxazol-2-yl)-3-azaspiro[5.5]undecan-9-yl]-5-(trifluoromethyl)furan-2-carboxamide]: the 50% inhibitory concentration (IC50) came out at 2.92 µM in the data set with HBsAg and 2.64 µM in the data set with HBeAg. Further, the CC50 at 144 h in data set [1] is over 100 µM.
